Measured values from patent US20030232790A1, “Dihydro-2h-napthalene-1-one inhibitors of ras farnesyl transferase” (priority 2002, published 2003).
Read-outs that look alike come from different tables or passages of the source.

Columns and labels:
[1] = biological target: T1, protein:farnesyl transferase (PFT), SF9 affinity purified rat FPT (Rattus norvegicus, UniProt Q02293+Q04631); assay: PFT (FPT) inhibitory activity, radiolabeled farnesyl pyrophosphate / biotinyl peptide streptavidin bead assay; format: biochemical
T1 construct: made in house
Protocol: The pharmaceutical utility of compounds of this invention was established by the following standard assay which measures inhibition of the enzyme protein:farnesyl transferase (PFT), also referred to as farnesyl protein transferase (FPT).
The PFT (or FPT) inhibitory activity of compounds of the present invention was assayed in HEPES buffer (pH 7.4) containing 5 mM potassium phosphate and 20 μM ZnCl2. The solution also contained 5 mM DTT (dithiothreitol), 5 mM MgCl2, and 0.1% PEG 8000. Assays were performed in 96 well plates (Wallec) and employed solutions composed of varying concentrations of a compound of the present invention in 10% DMSO (dimethylsulfoxide). Upon addition of both substrates, radiolabeled farnesyl pyrophosphate ([1^3H], specific activity 15-30 Ci/mmol, final concentration 134 nM) and (biotinyl)-Ahe-Thr-Lys-Cys-Val-Ile-Met ([3aS[3a alpha, 4 beta, 6a alpha]-hexahydro-2-oxo-1H-thieno[3,4-d]imidazole-5-pentanoic acid]-[7-aminoheptanoic acid]-Thr-Lys-Cys-Val-Ile-Met) (Ahe is 7-aminoheptanoic acid, Thr is threonine, Lys is lysine, Cys is cysteine, Val is valine, Ile is isoleucine, and Met is methionine) (final concentration 0.2 μM), the enzyme reaction was started by addition of SF9 affinity purified rat FPT. After incubation at 30° C. for 30 minutes, the reaction was terminated by diluting the mixture 2.5-fold with a stop buffer containing 1.5 M magnesium acetate, 0.2 M H3PO4, 0.5% BSA (bovine serum albumin), and strepavidin beads (Amersham) at a concentration of 1.3 mg/mL. After allowing the plate to settle for 30 minutes at room temperature, radioactivity was quantitated on a microBeta counter (Model 1450, Wallec). The assay was also carried out without 5 mM potassium phosphate.

[2] = system: EJ-1 human bladder carcinoma, HT18O human fibrosarcoma, and human colon carcinoma xenografts; conditions: 100 mg/kg; xenografts in nude mice; cited from earlier work
[3] = system: human lung carcinoma with K-ras mutation and p53 deletion; conditions: nude mice; cited from earlier work
[4] = system: mammary and salivary carcinomas; conditions: daily administration; ras transgenic mice; cited from earlier work
[5] = HEPES buffer pH 7.4 with 5 mM potassium phosphate, read-out: IC50 (μm) Hepes ± 5 mM Phosphate
[6] = HEPES buffer pH 7.4 without 5 mM potassium phosphate, read-out: IC50 (μm) Hepes

Row | IC50 [1, 5] [nM] | IC50 [1, 6] [nM] | Compound | also measured
1 | 870 | 1390 | CCCc1c(OCCc2cncn2Cc2ccccc2)ccc2c1CCCC2=O [Compound 2, 6-[2-(3-benzyl-3H-imidazol-4-yl)-ethoxy]-5-propyl-3,4-dihydro-2H-naphthalen-1-one] | –
2 | 52 | 73 | O=C1CCCc2c1ccc(OCCc1cncn1Cc1ccccc1)c2CCc1ccccc1 [Compound 3, 6-[2-(3-benzyl-3H-imidazol-4-yl)-ethoxy]-5-phenethyl-3,4-dihydro-2H-naphthalen-1-one] | –
3 | – | 0.3 | N#Cc1ccc(Cn2cncc2CCOc2ccc3c(c2CCc2ccccc2)CCCC3=O)cc1 [Compound 4, 4-{[5-(2-{[5-oxo-1-(2-phenylethyl)-5,6,7,8-tetrahydro-2-naphthalenyl]oxy}ethyl)-1H-imidazol-1-yl]methyl}benzonitrile] | –
4 | 22 | 24 | COc1ccc(Cn2cncc2CCOc2ccc3c(c2)CCCC3=O)cc1C [Compound 12, 6-{2-[3-(4-methoxy-3-methyl-benzyl)-3H-imidazol-4-yl]-ethoxy}-3,4-dihydro-2H-naphthalen-1-one] | –
5 | – | 0.3 | N#Cc1ccc(Cn2cncc2CCOc2ccc3c(c2CS(=O)(=O)c2ccccn2)CCCC3=O)cc1 [Compound 28, 4-({5-[2-({5-oxo-1-[(2-pyridinylsulfonyl)methyl]-5,6,7,8-tetrahydro-2-naphthalenyl}oxy)ethyl]-1H-imidazol-1-yl}methyl)benzonitrile] | –
6 | – | 0.5 | CC(C)S(=O)(=O)Cc1c(OCCc2cncn2Cc2ccc(C#N)cc2)ccc2c1CCCC2=O [Compound 29, 4-({5-[2-({1-[(isopropylsulfonyl)methyl]-5-oxo-5,6,7,8-tetrahydro-2-naphthalenyl}oxy)ethyl]-1H-imidazol-1-yl}methyl)benzonitrile] | –
7 | – | – | COC(=O)[C@H](CCSC)NC(=O)[C@H](/C=C\[C@@H](/C=C/[C@@H](N)CS)C(C)C)Cc1ccccc1 [Compound B1086] | tumor growth inhibition [2]: inhibit tumor growth
8 | – | – | CSCC[C@H](NC(=O)c1ccc(NC[C@@H](N)CS)cc1-c1ccccc1)C(=O)O [FTI276] | tumor growth [3]: selectively block tumor growth
9 | – | – | CC[C@H](C)[C@@H](CO[C@@H](Cc1ccccc1)C(=O)N[C@@H](CCS(C)(=O)=O)C(=O)OC(C)C)NC[C@@H](N)CS [L-744,832] | tumor regression [4]: caused tumor regression
